The source of these data is patent US20070060599A1, “Crystalline forms of [1S-(1alpha, 3alpha, 4beta)]-2-amino-1,9-dihydro-9-[4-hydroxy-3-(hydroxymethyl)-2-methylenecyclopentyl]-6H-purin-6-one” (priority 2005, published 2007).

The subject of this series is hepatitis B virus infection. Kind of series: once daily administration of low dose entecavir pharmaceutical compositions to treat hepatitis B virus infection. In kind it is in vivo, human. The method, then: In a yet another aspect, the invention provides pharmaceutical compositions comprising Form N-2 and/or Form IP.3-4 crystals of [1S-(1α,3α,4β)]-2-amino-1,9-dihydro-9-[4-hydroxy-3-(hydroxymethyl)-2-methylenecyclopentyl]-6H-purin-6-one and at least one pharmaceutically acceptable carrier or excipient. The pharmaceutical compositions may contain a low dose of from about 0.001 mg to about 25 mg of the active drug ingredient for once daily administration to treat hepatitis B virus infection in an adult human patient or a pediatric patient. Preferred pharmaceutical compositions contain from about 0.01 mg to about 10 mg of the active drug ingredient and most preferred pharmaceutical compositions contain from about 0.01 to about 5 mg of the active drug ingredient. Such preferred and most preferred pharmaceutical compositions are also administered once daily to treat hepatitis B virus infection in an adult or a pediatric patient.

`C=C1[C@H](CO)[C@@H](O)C[C@@H]1n1cnc2c(=O)[nH]c(N)nc21` [entecavir, [1S-(1α,3α,4β)]-2-amino-1,9-dihydro-9-[4-hydroxy-3-(hydroxymethyl)-2-methylenecyclopentyl]-6H-purin-6-one monohydrate]: the “effectiveness in treating hepatitis B virus infection” value is “effective”. Further, the undesirable side effects entry (compared with the high dose regimen of U.S. Pat. No. 5,206,244) was “without undesirable side effects”.
